Laboratory results as given in patent publication US7718651B2, “Inhibitors of FtsZ and uses thereof” (priority 2002, dated 2010).
In brackets after ≈: the same amount, converted by molar mass. Several values for one entry are separate records, joined by “and”; a condition that tells them apart may be missing. Equal entries are not always repeated. Entries after “also recorded” stand apart in the source; their conditions may differ. Where two headings read alike, the source gives them in different places.

Tests used:
[1] = system: M. tuberculosis H37Rv; assay: microbe, parasite or virus in culture; type: cell-based; settings: for inhibition of growth at 12.5 µg/mL: Mycobacterium tuberculosis, M. tuberculosis H37Rv, at 12.5% μg/ml (so in the source), read-out: Primary Screen PI (% inhibition of growth); for activity against M. tuberculosis H37Rv in the primary screen: in words
[2] = system: M. tuberculosis H37Rv; assay: MIC99 determination, BACTEC 460 radiometric system; type: cell-based; settings: Mycobacterium tuberculosis
[3] = system: Vero cells; assay: Cytotoxicity in Vero cells (MTS assay); type: cell-based; settings: Chlorocebus sabaeus, Vero cells
[4] = system: M. tuberculosis H37Ra; assay: MIC/MBC, colorimetric (alamar blue) microdilution broth assay; type: cell-based; settings: for log reduction in cfu/mL: H37Ra
[5] = system: M. tuberculosis Erdman; assay: Activity in M. tuberculosis-infected mouse bone marrow macrophages; type: cell-based; settings: for EC90: Mycobacterium tuberculosis, ERDMAN, Bone marrow macrophage, 168 h
Protocol: Toxicity was determined by visual inspection.

[6] = target: T1, M. tuberculosis FtsZ (Mycobacterium tuberculosis, UniProt P9WN95); assay: biochemical; settings: read-out: FtsZ polymerization ID50
[7] = target: T1, M. tuberculosis FtsZ; assay: biochemical; settings: 100 μM compound, Table 6; read-out: M. tuberculosis FtsZ GTP Hydrolysis % Inhibition (100 μM)
[8] = system: bovine tubulin; assay: Light scattering assay for tubulin polymerization; type: biochemical
[9] = system: panel of Gram positive rods and cocci; assay: Microdilution broth MIC against a panel of bacteria; type: cell-based
[10] = system: Escherichia coli; assay: Microdilution broth MIC, Escherichia coli; type: cell-based
[11] = system: Salmonella typhimurium; assay: Microdilution broth MIC, Salmonella typhimurium; type: cell-based
[12] = system: Staphylococcus aureus; assay: Microdilution broth MIC, Staphylococcus aureus; type: cell-based
[13] = system: S. epidermidis; assay: Microdilution broth MIC, S. epidermidis; type: cell-based; settings: Staphylococcus epidermidis; S. epidermidis SRI 1296, Trimethoprim resistant
[14] = system: Enterococcus hirae; assay: Microdilution broth MIC, Enterococcus hirae; type: cell-based; settings: Enterococcus hirae SRI 76, Wild type
[15] = system: E. faecalis; assay: Microdilution broth MIC, E. faecalis; type: cell-based
[16] = system: E. faecium; assay: Microdilution broth MIC, E. faecium; type: cell-based; settings: Enterococcus faecium; E. faecium SRI 1421, Vancomycin resistant
[17] = system: Bacillus subtilis; assay: Microdilution broth MIC, Bacillus subtilis; type: cell-based; settings: Bacillus subtilis SRI 1032, Wild type
[18] = system: Mycobacterium bovis (BCG); type: cell-based
[19] = M. tuberculosis H37Rv, read-out: MIC99
[20] = 72 h, 72 h exposure, Table 3, read-out: IC50

T1 sequence (P9WN95 whole entry, looked up): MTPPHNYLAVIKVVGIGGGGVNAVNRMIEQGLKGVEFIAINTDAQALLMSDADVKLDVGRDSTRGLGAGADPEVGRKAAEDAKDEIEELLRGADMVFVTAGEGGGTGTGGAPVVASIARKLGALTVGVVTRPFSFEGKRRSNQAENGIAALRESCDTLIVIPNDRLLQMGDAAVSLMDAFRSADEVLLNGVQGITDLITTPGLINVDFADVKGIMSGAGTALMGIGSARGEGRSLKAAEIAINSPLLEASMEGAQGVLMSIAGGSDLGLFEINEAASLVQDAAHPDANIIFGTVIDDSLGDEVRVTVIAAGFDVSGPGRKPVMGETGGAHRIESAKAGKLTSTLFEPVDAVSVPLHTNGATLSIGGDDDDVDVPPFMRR

CCOC(=O)Nc1cc(NC(C)CCCN(CC)CC)c2nc(-c3ccccc3)c(-c3ccccc3)nc2n1 (stereo not shown) [SRI-3072, [8-(4-Diethylamino-1-methyl-butylamino)-2,3-diphenyl-pyrido[2,3-b]pyrazin-6-yl]-carbamic acid ethyl ester]
inhibition of growth at 12.5 µg/mL [1]: 100% | activity against M. tuberculosis H37Rv in the primary screen [1]: demonstrated activity | MIC ([2]; H37RV, MIC referred to for dosing of the macrophage assay, strain not stated, read-out: MIC): 0.2 µg/mL (≈ 0.38 µM) | MIC99 ([2]; M. tuberculosis H37Rv, Table 3, read-out: Screen 2 MIC99): 0.15 µg/mL | MIC99 [2, 19]: 0.15 µg/mL and 0.28 µM | MIC ([2]; wildtype (H37Rv), Table 5, read-out: MIC, WT): 0.2 µg/mL (≈ 0.38 µM) | IC50 [3, 20]: 6.3 µg/mL (≈ 12 µM) | IC50 ([3]; read-out: IC50): 6.3 µg/mL (≈ 12 µM) | log reduction in cfu/mL ([4]; 0.95 μM drug, six days): 0.98±0.11 | log reduction in cfu/mL ([4]; 1.9 μM drug, six days): 1.7±0.06 | log reduction in cfu/mL ([4]; 3.8 μM drug, six days): 2.0±0.12 | MBC ([4]; Mycobacterium tuberculosis, H37RA, 144 h, M. tuberculosis H37Ra, six days): 1 µg/mL to 2 µg/mL and 1.9 µM to 3.8 µM | MIC ([4]; Mycobacterium tuberculosis, H37RA, M. tuberculosis H37Ra, FIG. 2 legend): 250 µg/mL (≈ 475 µM) | MIC ([4]; Mycobacterium tuberculosis, H37RA, M. tuberculosis H37Ra, read-out: MIC): 0.25 µg/mL and 0.47 µM | EC90 ([5]; after seven days, read-out: EC90): 0.12 µg/mL | EC90 ([5]; after seven days, read-out: EC90 (90% reduction in mycobacterial growth)): 0.23 µM | EC99 ([5]; after seven days): 1.42 µg/mL | EC99 (99% reduction in mycobacterial growth) ([5]; after seven days): 2.7 µM | growth of M. tuberculosis in infected mouse bone marrow macrophages ([5]; in words): inhibit the growth | IC50 [6]: 52 ± 12 µM | inhibition at 100 µM [7]: 20% | inhibition of tubulin polymerization ([8]; in words, 100 μM): no inhibition of tubulin was seen; also recorded: no effect | Bovine Brain Tubulin Polymerization ID50 ([8]; tubulin 20 μM, 1 mM GTP, Table 6): no inhibition (100 μM) | MIC ([9]; Bacillus subtilis, read-out: MICs against expanded panel of Gram positive rods and cocci): 32 to 64 µg/mL (≈ 60.8 to 122 µM) | activity against several Gram-positive bacteria, including drug resistant strains ([9]; in words): moderate activity | MIC ([10]; Escherichia coli SRI 1218, Wild type): > 64 µg/mL | activity against E. coli ([10]; in words): not active | MIC ([11]; Salmonella enterica, TYPHIMURIUM): 64 µg/mL (≈ 122 µM) | activity against S. typhimurium deep rough (rfa) mutant ([11]; in words): active | MIC ([12]; S. aureus SRI 1186, Wild type): 32 µg/mL (≈ 60.8 µM) | MIC ([12]; S. aureus SRI 1279, Methicillin resistant): 64 µg/mL (≈ 122 µM) | MIC ([12]; S. aureus SRI 1343, Multi-drug resistant): 64 µg/mL (≈ 122 µM) | MIC ([12]; Staphylocococcus aureus SRI 1323, Wild type): 32 µg/mL (≈ 60.8 µM) | MIC ([12]; strain not named): 32 µg/mL (≈ 60.8 µM) | MIC [13]: 32 µg/mL (≈ 60.8 µM) | MIC [14]: 32 µg/mL (≈ 60.8 µM) | MIC ([15]; E. faecalis SRl 1295, Wild type): 64 µg/mL (≈ 122 µM) | MIC ([15]; Enterococcus faecalis, E. faecalis SM 1414, Vancomycin resistant, read-out: MIC): 64 µg/mL (≈ 122 µM) | MIC [16]: 32 µg/mL (≈ 60.8 µM) | MIC [17]: 16 µg/mL (≈ 30.4 µM) | cell length / morphology [18]: much longer and branched | recovery after washing to remove drug ([18]; BCG cultured cells): do not recover

CCOC(=O)Nc1cc2c(c(N)n1)N=C(c1ccccc1)CCN2 [SRI-7614, (1-Amino-8-phenyl-6,7-dihydro-5H-2,5,9-triaza-benzocyclohepten-3-yl)-carbamic acid ethyl ester]
inhibition of growth at 12.5 µg/mL [1]: 100% | activity against M. tuberculosis H37Rv in the primary screen [1]: demonstrated activity | MIC99 ([2]; H37RV): 6.25 µg/mL | MIC99 ([2]; H37RV, read-out: Screen 2 MIC99): 6.25 µg/mL | MIC99 [2, 19]: 19 µM | IC50 [3, 20]: > 200 µg/mL | IC50 ([3]; read-out: IC50): > 200 µg/mL | IC50 [6]: 60 µM | inhibition at 100 µM [7]: 25% | IC50 ([8]; read-out: tubulin polymerization ID50): 4 µM
